Experimental data from US20200392462A1, “METHODS OF FORMING CARDIOMYOCYES” (THE REGENTS OF THE UNIVERSITY OF COLORADO, A BODY CORPORATE, priority 2018, published 2020).

Experiment: Inhibitor release study by HPLC
Type: physicochemical
Protocol: Inhibitor loading efficiency and release studies: All supernatants after initial loading of inhibitors were stored at −20° C. Supernatants were analyzed by reverse phase high performance liquid chromatography (HPLC). Inhibitor release studies were done sampling particle suspension inhibitor release up to 6 days. Briefly, drug release solution was prepared using 1 mL of 1×PBS, and 1 mL of 1% bovine serum albumin. The lyophilized pSi were suspended at a concentration of 3 mg/mL of drug release solution and incubated at 37° C. with constant stirring. At 1, 3, 5, 12 and every 24 hours thereafter, suspensions were centrifuged and 1 ml drug release solution was taken and replaced with fresh drug release solution. Agilent Zorbax Eclipse Plus C18 (100×4.6 mm, 3.5 um pore particle size) column was used for analysis. Samples flowed through the column at 1.0 ml/min and with a mobile phase consisting of acetonitrile in 0.1% trifluoroacedic acid: H2O in 0.1% trifluoroacedic acid (V/V). Samples were analyzed at 281 nm.

Structure (SMILES)	cumulative release (from pSi, at 144 hours) [%]	cumulative release (from pSi, within the first 24 hours, 37° C., PBS/BSA) [%]	cumulative release (from pSi coated with 5 wt % PLGA 50:50, after 144 hours) [%]	cumulative release (from pSi coated with 5 wt % PLGA 50:50, end of 72 hours) [%]	cumulative release (from pSi coated with 5 wt % PLGA 50:50, within the first 48 hours) [%]
Cc1c[nH]c(-c2cnc(NCCNc3ccc(C#N)cn3)nc2-c2ccc(Cl)cc2Cl)n1 [CHIR99021]	~100	81.1±5.3			
Cc1ccc2nc(NC(=O)CSc3nc4c(c(=O)n3-c3ccccc3)SCC4)sc2c1 [IWP2]			56.4±7.2	40.2±9.1	27.8±7.2
